Measured values taken from US5158950A, “1,3-dithiol-2-ylidene derivatives and process for the preparation thereof” (Yuhan Corporation, Ltd., priority 1987, dated 1992).

Experiments:
[1] = Acute oral toxicity, median lethal dose (LD50); conditions: mouse, in vivo, male ICR mice, deaths counted for 14 days
Method: Each test compound was suspended in a 0.2% CMC-Na solution in various concentrations to make test suspension. The test suspensions were administered orally to male ICR mice (10 in each group) at various doses. The number of dead mice was counted for 14 days and the value of mediam lethal dose (LD50, g/kg) was calculated by the Hitchifield-Wilcoxon method.

[2] = system: serum ALT activity induced by CCl4; experiment: Protective effect against acute hepatic damage induced by carbon tetrachloride (serum ALT); format: in vivo; conditions: Mus musculus; mice, 50 mg/kg oral, 6 h before CCl4 (50 ul/kg oral); ALT 24 h after CCl4; read-out: Inhibitory (%): protective effect against increase of serum ALT activity induced by CCl4
Method: Principle; Carbon tetrachloride (CCl4) is a well-known hepatotoxic agent, thus widely used to produce experimental animal models for screening the potential drugs acting upon hepatic diseases. In this experiment test compounds were administered to mice prior to treatment with CCl4. 24 Hours after the CCl4 treatment, the animals were sacrificed and serum alanine aminotransferase (ALT) levels were determined. The hepatoprotective effect of a test compound was evaluated by the suppressive action against the increase of serum ALT induced by CCl4.
Method; The experimental animals were divided into normal, CCl4 treated and test compound treated groups. Each group consisted of 8 mice with body weight of 20-25 grams. The test compounds were suspended in 0.2% sodium carboxy methyl cellulose (CMC-Na) solution and administered orally at the dose of 50 mg/125 ml/kg body weight. Only the vehicle, 0.2% CMC-Na solution, was administered to the normal and to the CCl4 treated group instead of the test compound suspension. 6 Hours after the drug administration, the CCl4 solution in olive oil was administered orally to the CCl4 treated- and the test compound treated group at the dose of 50 ul/25 ml olive oil/kg body weight. The normal group was administered olive oil only at the same dose. 24 Hours after the CCl4 administration, blood samples were collected from the orbital sinus of the animals and the sera were obtained by centrifugation The serum ALT activities were monitored using an automatic blood analyzer (Gilford, SBA 300). The hepatoprotective effect of the test compounds was expressed by the suppressive percentage against the increase of serum ALT level induced by CCl4 calculated by the following formula; [formula]

Molecule CC(C)OC(=O)C(C(=O)Nc1cccc(O)c1)=C1SC=CS1 [22(c), Isopropyl 2-(1,3-dithiol-2-ylidene)-2-[N-(3-hydroxyphenyl)carbamoyl]acetate] has an LD50 at 336 h [1] greater than 5000 mg/kg and an inhibition in vivo at 50 mg/kg [2] of 93%.

In the case of CC(C)OC(=O)C(C(=O)NC1CCCCC1)=C1SC=CS1 [Example 12, Isopropyl 2-(1,3-dithiol-2-ylidene)-2-(N-cyclohexylcarbamoyl)acetate], the inhibition in vivo at 50 mg/kg [2] is reported as 98%.

CNC(=O)C(C(=O)OC(C)C)=C1SC=CS1 [Example 10, Isopropyl 2-(1,3-dithiol-2-ylidene)-2-(N-methylcarbamoyl) acetate] gave an inhibition in vivo at 50 mg/kg [2] of 92%.

CC(=O)Nc1ccc(NC(=O)C(C(=O)OC(C)C)=C2SC=CS2)cc1 [17(q), Isopropyl 2-(1,3-dithiol-2-ylidene)-2-[N-(4-acetamidophenyl)carbamoyl]acetate] gave an LD50 at 336 h [1] greater than 5000 mg/kg and an inhibition in vivo at 50 mg/kg [2] of 78.2%.

CC(C)OC(=O)C(C(=O)NC1=NCCS1)=C1SC=CS1 [22(e), Isopropyl 2-(1,3-dithiol-2-ylidene)-2-[N-(2-thiazolin-2-yl)carbamoyl]acetate] gave an LD50 at 336 h [1] greater than 5000 mg/kg and an inhibition in vivo at 50 mg/kg [2] of 99.4%.

CCN(CC)C(=O)C(C(=O)OC(C)C)=C1SC=CS1 [Example 13, Isopropyl 2-(1,3-dithiol-2-ylidene)-2-(N,N-diethylcarbamoyl) acetate] showed an inhibition in vivo at 50 mg/kg [2] of 55.6%.

Molecule Cc1cccc(NC(=O)C(C(=O)OC(C)C)=C2SC=CS2)c1C [17(f), Isopropyl 2-(1,3-dithiol-2-ylidene)-2-[N-(2,3-dimethylphenyl)carbamoyl]acetate] has an inhibition in vivo at 50 mg/kg [2] of 92%.

CC(C)OC(=O)C(C(=O)N(C)c1ccccc1)=C1SC=CS1 [Example 16, Isopropyl 2-(1,3-dithiol-2-ylidene)-2-(N-methyl-N-phenylcarbamoyl)acetate] gave an inhibition in vivo at 50 mg/kg [2] of 47.9%.

CC(C)OC(=O)C(C(=O)Nc1ccc(Cl)cc1)=C1SC=CS1 [17(g), Isopropyl 2-(1,3-dithiol-2-ylidene)-2-[N-(4-chlorophenyl)carbamoyl]acetate] showed an LD50 at 336 h [1] greater than 5000 mg/kg and an inhibition in vivo at 50 mg/kg [2] of 81.5%.

In the case of CC(C)OC(=O)C(C(=O)Nc1ncccn1)=C1SC=CS1 [21(d), Isopropyl 2-1,3-dithiol-2-ylidene)-2-(N-pyrimidin-2-ylcarbamoyl) acetate], the LD50 at 336 h [1] is reported as 3200 mg/kg and the inhibition in vivo at 50 mg/kg [2] is reported as 99.8%.

With CC(C)OC(=O)C(C(=O)N1CCOCC1)=C1SC=CS1 [26(a), Isopropyl 2-(1,3-dithiol-2-ylidene)-2-(4-morpholinylcarbonyl)acetate] the inhibition in vivo at 50 mg/kg [2] was 66.5%.

For CC(C)OC(=O)C(C(=O)n1ccnc1)=C1SC=CS1 [26(d), Isopropyl 2-(1,3-dithiol-2-ylidene)-2-(1-imidazolylcarbaony)acetate], the inhibition in vivo at 50 mg/kg [2] was 98%.

Molecule CC(C)OC(=O)C(C(=O)N1CCN(C)CC1)=C1SC=CS1 [26(b), Isopropyl 2-(1,3-dithiol-2-ylidene)-2-[(4-methylpiperazin-1-yl)carbonyl]acetate] has an inhibition in vivo at 50 mg/kg [2] of 46%.

For CC(C)NC(=O)C(C(=O)OC(C)C)=C1SC=CS1 [Example 11, Isopropyl 2-(1,3-dithiol-2-ylidene)-2-(N-isopropylcarbamoyl)acetate], the LD50 at 336 h [1] was 2600 mg/kg and the inhibition in vivo at 50 mg/kg [2] was 49.4%.

Work on CC(=O)Oc1ccccc1NC(=O)C(C(=O)OC(C)C)=C1SC=CS1 [24(c), Isopropyl 2-(1,3-dithiol-2ylidene)-2-[N-(2-acetoxyphenyl)carbamoyl]acetate] yielded an inhibition in vivo at 50 mg/kg [2] of 22.8%.

For CC(C)OC(=O)C(C(=O)Nc1cccc(C(F)(F)F)c1)=C1SC=CS1 [17(t), Isopropyl 2-(1,3-dithiol-2-ylidene)-2-[N-(3-trifluoromethylphenyl)carbamoyl]acetate], the inhibition in vivo at 50 mg/kg [2] was 96%.

In the case of CC(C)OC(=O)C(C(=O)Nc1ccnc(O)n1)=C1SC=CS1 [18(m)], the LD50 at 336 h [1] is reported as greater than 5000 mg/kg and the inhibition in vivo at 50 mg/kg [2] is reported as 12.8%.

Work on CC(C)OC(=O)C(C(=O)Nc1nc2ccccc2s1)=C1SC=CS1 [18(n), Isopropyl 2-(1,3-dithiol-2-ylidene)-2-[N-(2-benzothiazolyl)carbamoyl]acetate] yielded an LD50 at 336 h [1] greater than 5000 mg/kg and an inhibition in vivo at 50 mg/kg [2] of 15.2%.

Molecule CC(=O)Oc1ccc(NC(=O)C(C(=O)OC(C)C)=C2SC=CS2)cc1 [24(a), Isopropyl 2-(1,3-dithiol-2-ylidene)-2-[N-(4-acetoxyphenyl)carbamoyl]acetate] has an inhibition in vivo at 50 mg/kg [2] of 102%.

Molecule Cc1ccc(NC(=O)C(C(=O)OC(C)C)=C2SC=CS2)cc1 [17(e), Isopropyl 2-(1,3-dithiol-2-ylidene)-2-[N-(4-methylphenyl)carbamoyl]acetate] has an inhibition in vivo at 50 mg/kg [2] of 100%.

Molecule CC(=O)Oc1cccc(NC(=O)C(C(=O)OC(C)C)=C2SC=CS2)c1 [24(b)] has an LD50 at 336 h [1] greater than 5000 mg/kg and an inhibition in vivo at 50 mg/kg [2] of 98%.

Work on CC(C)OC(=O)C(C(=O)Nc1ccc(F)cc1)=C1SC=CS1 [17(i), Isopropyl 2-(1,3-dithiol-2-ylidene)-2-[N-(4-fluorophenyl)carbamoyl]acetate] yielded an LD50 at 336 h [1] greater than 5000 mg/kg and an inhibition in vivo at 50 mg/kg [2] of 89.8%.

For CC(C)OC(=O)C(C(=O)Nc1ccccc1O)=C1SC=CS1 [22(d), Isopropyl 2-(1,3-dithiol-2-ylidene)-2-[N-(2-hydroxyphenyl)carbamoyl]acetate], the inhibition in vivo at 50 mg/kg [2] was 16.2%.

Molecule Cc1nc(NC(=O)C(C(=O)OC(C)C)=C2SC=CS2)sc1C [19(f), Isopropyl 2-(1,3-dithiol-2-ylidene)-2-[N-(4,5-dimethyl-2-thiazolyl)carbamoyl]acetate] has an LD50 at 336 h [1] greater than 5000 mg/kg and an inhibition in vivo at 50 mg/kg [2] of 91.4%.

CC(C)OC(=O)C(C(=O)N1CCCC1)=C1SC=CS1 [26(c), Isopropyl 2-(1,3-dithiol-2-ylidene)-2-(1-pryrrolidinylcarbaonyl) acetate] gave an inhibition in vivo at 50 mg/kg [2] of 90.5%.

For CC(C)OC(=O)C(C(=O)Nc1ccccc1F)=C1SC=CS1 [17(j), Isopropyl 2-(1,3-dithiol-2-ylidene)-2-[N-(2-fluorophenyl)carbamoyl]acetate], the LD50 at 336 h [1] was greater than 5000 mg/kg.

Work on COc1ccc(NC(=O)C(C(=O)OC(C)C)=C2SC=CS2)cc1 [17(l), Isopropyl 2-(1,3-dithiol-2-ylidene)-2-[N-(4-methoxyphenyl)carbamoyl]acetate] yielded an LD50 at 336 h [1] greater than 5000 mg/kg and an inhibition in vivo at 50 mg/kg [2] of 99.6%.

Molecule CC(C)OC(=O)C(C(=O)N1CCCC1C(=O)O)=C1SC=CS1 (stereo not shown) [Example 15, Isopropyl 2-(1,3-dithiol-2-ylidene)-2-[(2-carboxypyrrolidin-1-yl)carbonyl]acetate] has an inhibition in vivo at 50 mg/kg [2] of 14%.

Molecule CC(C)OC(=O)C(C(=O)Nc1ccc(C(F)(F)F)cc1)=C1SC=CS1 [17(s), Isopropyl 2-(1,3-dithiol-2-ylidene)-2-[N-(4-trifluoromethylphenyl)carbamoyl]acetate] has an LD50 at 336 h [1] greater than 4000 mg/kg and an inhibition in vivo at 50 mg/kg [2] of 100%.

In the case of CC(C)OC(=O)C(C(=O)Nc1ccccc1C(=O)O)=C1SC=CS1 [25(a), Isopropyl 2-(1,3-dithiol-2-ylidene)-2-[N-(2-carboxyphenyl)carbamoyl]acetate], the LD50 at 336 h [1] is reported as 1200 mg/kg and the inhibition in vivo at 50 mg/kg [2] is reported as 74%.

For COc1cccc(NC(=O)C(C(=O)OC(C)C)=C2SC=CS2)c1 [Example 17(o), isopropyl 2-(1,3-dithiol-2-ylidene)-2-[N-(3-methoxyphenyl)carbamoyl]acetate], the inhibition in vivo at 50 mg/kg [2] was 100%.

For CC(C)OC(=O)C(C(N)=O)=C1SC=CS1 [Example 9, Isopropyl 2-(1,3-dithiol-2-ylidene)-2-carbamoylacetate], the inhibition in vivo at 50 mg/kg [2] was 65.5%.

With CC(C)OC(=O)C(C(=O)Nc1cccc(Cl)c1)=C1SC=CS1 [17(h), Isopropyl 2-(1,3-dithiol-2-ylidene)-2-[N-(3-chlorophenyl)carbamoyl]acetate] the LD50 at 336 h [1] was greater than 5000 mg/kg and the inhibition in vivo at 50 mg/kg [2] was 97.5%.

CC(=O)Nc1cccc(NC(=O)C(C(=O)OC(C)C)=C2SC=CS2)c1 [17(r), Isopropyl 2-(1,3-dithiol-2-ylidene)-2-[N-(3-acetamidophenyl)carbamoyl]acetate] showed an inhibition in vivo at 50 mg/kg [2] of 46.6%.
